Reference: patent US20170274014A1, “COMBINATIONS OF LOW, IMMUNE ENHANCING, DOSES OF MTOR INHIBITORS AND CARS” (Novartis AG, priority 2014, published 2017)
Values joined by “and” are separate entries in the source; they are usually repeats but may differ in a detail not shown here. Equal entries are not always repeated. Where two headings read alike, the source gives them in different places.

What was measured:
[1] = system: humanized CD19 CART cells; settings: RAD001 0.003 mg/kg daily with huCTL019; compared with normal level of huCAR19 proliferation
[2] = system: heterologous influenza strains (A/H1N1 strain A/New Jersey/8/76 and A/H3N2 strain A/Victoria/361/11); design: species or system human; settings: in vivo
[3] = human, in vivo
[4] = system: 3 influenza vaccine strains; design: species or system human; settings: in vivo
[5] = system: A/H3N2 strain A/Victoria/361/11; experiment: Hemagglutination inhibition titers to heterologous A/H3N2 strain not in the vaccine; assay type: in vivo, human
[6] = system: pneumococcal serotypes; settings: all 3 RAD cohorts; 7 of 23 serotypes measured
[7] = PK analysis of RAD001 in blood of tumor bearing NSG mice; assay type: in vivo; settings: for concentration at 24 h: mouse, whole blood
Experimental: RAD001 dosing: A concentrated micro-emulsion of 50 mg equal to 1 mg RAD001 was formulated and then resuspended in D5W (dextrose 5% in water) at the time of dosing. Mice were orally dosed daily (via oral gavage) with 200 μl of the desired doses of RAD001.
PK analysis: Mice were dosed daily with RAD001 starting 7 days post tumor implantation. Dosing groups were as follows: 0.3 mg/kg, 1 mg/kg, 3 mg/kg, and 10 mg/kg. Mice were bled on days 0 and 14 following the first and last dose of RAD001, at the following time points for PK analysis: 15 minutes, 30 minutes, 1 hour, 2 hours, 4 hours, 8 hours, 12 hours, and 24 hours.

[8] = system: A/H1N1/California/07/2009; experiment: Serum anti-influenza IgG and IgM levels before and 4 weeks after vaccination; assay type: in vivo, human; settings: RAD001 vs placebo treated cohorts
Experimental: The trial was observer-blind because the placebo in the RAD001 0.5 mg daily and 20 mg weekly cohorts differed slightly from the RAD001 tablets in those cohorts. […] The treatment duration for all cohorts was 6 weeks during which time subjects underwent safety evaluations in the clinic every 2 weeks. After subjects had been dosed for 4 weeks, RAD001 steady state levels were measured pre-dose and at one hour post dose. […] Antibody titers to the 3 influenza vaccine strains as well as to 2 heterologous strains (A/H1N1 strain A/New Jersey/8/76 and A/H3N2 strain A/Victoria/361/11) were measured by standard hemagglutination inhibition assay (Kendal, A P et al. (1982) Concepts and procedures for laboratory-based influenza surveillance. Atlanta: Centers for Disease Control and Prevention B17-B35). Levels of IgG and IgM specific for the A/H1N1/California/07/2009 were measured in serum samples taken before and 4 weeks after influenza vaccination as described previously (Spensieri, F. et al. (2013) Proc. Natl. Acad. Sci. USA 110:14330-14335). Results were expressed as fluorescence intensity.

[9] = system: huCAR19 CAR T cells; experiment: CAR T cell expansion in vivo in NSG mice with NALM6-luc tumors (FACS); settings: lowest doses of RAD001, daily oral; more evident and prolonged with CD4+ than CD8+ CAR T cells
[10] = system: PD-1 positive CD4 and CD8 T cells; design: species or system human; settings: in vivo
[11] = system: influenza vaccine strains (H1N1 A/California/07/2009, H3N2 A/Victoria/210/2009, B/Brisbane/60/2008); experiment: Influenza vaccine strain titers after RAD001 dosing versus placebo; assay type: in vivo, human; settings: 4 weeks after vaccination; RAD001 dosing cohorts; intention to treat population
Experimental: In FIG. 1A, the increase above baseline in influenza geometric mean titers to each of the 3 influenza vaccine strains (H1N1 A/California/07/2009, H3N2 A/Victoria/210/2009, B/Brisbane/60/2008) relative to the increase in the placebo cohort 4 weeks after vaccination is shown for each of the RAD001 dosing cohorts in the intention to treat population. […] FIG. 1B is a graph of the same data as in FIG. 1A for the subset of subjects with baseline influenza titers <=1:40.
RAD001 concentrations (1 hour post dose) were measured after subjects had been dosed for 4 weeks. All subjects who had pharmacokinetic measurements were included in the analysis set. The fold increase in geometric mean titers at 4 weeks post vaccination relative to baseline is shown on the y axis.

CO[C@H]1C[C@@H]2CC[C@@H](C)[C@@](O)(O2)C(=O)C(=O)N2CCCC[C@H]2C(=O)O[C@H]([C@H](C)C[C@@H]2CC[C@@H](OCCO)[C@H](OC)C2)CC(=O)[C@H](C)/C=C(\C)[C@@H](O)[C@@H](OC)C(=O)[C@H](C)C[C@H](C)/C=C/C=C/C=C/1C [RAD001, (1R,9S,12S,15R,16E,18R,19R,21R,23S,24E,26E,28E,30S,32S,35R)-1,18-dihydroxy-12-{(1R)-2-[(1S,3R,4R)-4-(2-hydroxyethoxy)-3-methoxycyclohexyl]-1-methylethyl}-19,30-dimethoxy-15,17,21,23,29,35-hexamethyl-11,36-dioxa-4-aza-tricyclo[30.3.1.04,9]hexatriaconta-16,24,26,28-tetraene-2,3,10,14,20-pentaone]
CAR T cell proliferation in vivo (CD4+ and CD8+ CAR T cells) [1]: enhancement in CAR T cell proliferation
increase above baseline in influenza geometric mean titers to 2 heterologous influenza strains relative to placebo [2]: increase in titers
Deaths during the study [3]: No deaths occurred
Incidence of treatment-related AE: Blood cholesterol increased [3]: 2 (3.8%) n (%)
Most common RAD001-related AE [3]: mouth ulcer
Tolerability [3]: well tolerated
Primary endpoint of the study (HI GMT ratio >=1.2-fold relative to placebo in at least 2 of 3 strains) [4]: met the GMT primary endpoint
RAD001-associated increase in influenza titers in subgroup analysis [4]: greater RAD001-associated increase in titers than did the ITT population
Percentage of subjects who seroconvert to heterologous A/H3N2 strain A/Victoria/361/11 4 weeks after seasonal influenza vaccination ([5]; 0.5 mg daily): 38%
Percentage of subjects who seroconvert to heterologous A/H3N2 strain A/Victoria/361/11 4 weeks after seasonal influenza vaccination ([5]; 5 mg weekly, * p < 0.05 vs placebo): 39%*
Percentage of subjects who seroconvert to heterologous A/H3N2 strain A/Victoria/361/11 4 weeks after seasonal influenza vaccination ([5]; 20 mg weekly, * p < 0.05 vs placebo): 40%*
Increase in the HI GMT ratio for the heterologous strain ([5]; RAD001 vs placebo cohorts): higher in the RAD001 as compared to placebo cohorts
H3N2 heterologous strain seroconversion rate ([5]; pooled RAD001 cohorts, versus 20% for placebo, p=0.007): 39%
Pneumococcal serotypes with increased antibody titers compared to placebo [6]: 6/7
concentration at 24 h ([7]; NSG, lowest dose tested (0.3 mg/kg) oral daily, day 0 and day 14, read-out: RAD001 concentration in the blood 24 hours after dosing): > 10 nM
Stability in the blood of tumor bearing mice ([7]; daily oral dosing, day 0 and day 14 PK): fairly stable
concentration at 24 h ([7]; 0.3 mg/kg, NSG mice, daily oral dosing, read-out: Concentration of RAD001 24 hours after the final dose): > 10 nM
Post-vaccination anti-influenza IgM and IgG levels [8]: did not differ between RAD001 and placebo treated cohorts
Proliferation of the CAR T cells in vivo [9]: enhanced proliferation
Decrease in PD-1 positive CD4 T cells compared to placebo cohort [10]: 30.2% and 32.7%
Decrease in PD-1 positive CD8 T cells compared to placebo cohort [10]: 37.4% and 41.4%
Percentage of CD4 PD-1 positive T cells [10]: decreased from baseline
Percentage of CD8 PD-1 positive cells [10]: decreased from baseline
Percentage of PD-1 negative CD4 T cells [10]: increased
increase above baseline in influenza geometric mean titers to the 3 influenza vaccine strains relative to placebo [11]: increase in titers
